Test results taken from patent US10857185B2, “Compositions and methods for reprogramming non-neuronal cells into neuron-like cells” (Beihao Stem Cell and Regenerative Medicine Research …, priority 2015, dated 2020).
Entries after “also recorded” stand apart in the source; their conditions may differ.

Assays:
fibroblasts = experiment: Gene expression (RT-qPCR) after removing each small molecule from the cocktail; assay type: cell-based, mouse
Protocol: Total RNA was extracted using the Qiagen RNeasy Plus mini kit and was reverse transcribed into cDNA with TransScript One-step gDNA Removal and cDNA Synthesis SuperMix (TransGen Biotech). Real-time PCR was performed using a 7300 Real-Time PCR system (Applied Biosystems) with Power SYBR Green PCR Master Mix (2×).
Gene expression was analyzed using the ΔΔCt method. All the results were normalized to β-actin expression, and the values of uninduced fibroblasts were set to 1. Two replicates were used to determine the error bars.
Next, the roles of the small molecules in regulating these endogenous cell-fate-determining factors were determined.

mouse fibroblasts = experiment: Transgene-free chemical induction of mouse fibroblasts into neuron-like cells (immunostaining counts); assay type: cell-based
Protocol: Secondary screening was performed to identify additional small molecules that facilitate neuronal reprogramming and maturation (shown schematically in FIG. 2A). In this screening, the effect of the additional small molecules was evaluated by observing neurite outgrowth. Desirable additional small molecules could induce the neurons with an improved neurite outgrowth as signs of enhanced reprogramming and maturation, ideally with highly complex morphologies. Improved neurite morphologies were evaluated in terms of enhanced neurite branches and neurite length. Further, characterization (e.g. TUJ1 immunostaining) was performed to confirm the observation. Fibroblasts were seeded into 12-well plates and each additional small molecule was added well by well into the culture medium containing the basic small-molecule cocktail (SM-cocktail+1 Screening), while SM-cocktail+DMSO was used as a negative control. […] TUJ1-positive cells with circular cell bodies and neurite outgrowth that is at least three-fold longer than the cell body were quantified. […] Cells were washed with PBS twice and then fixed with 4% paraformaldehyde for 20 min at room temperature. Afterward, the cells were washed with PBS twice and then blocked and permeabilized with 0.25% PBST (PBS plus 0.25% Triton X-100) and 3% donkey serum (DS) for 1 hour at 37° C. A PAP pen was used to outline the fields for staining. Diluted primary antibodies were added to the outlined fields, and the samples were incubated at 4° C. overnight. Next, the cells were washed three times with PBS and incubated in PBS plus 3% DS with diluted secondary antibodies for 1 hour at room temperature. The nuclei of the cells were stained with DAPI (Roche Molecular Biochemicals) if needed. […] The following secondary antibodies were used in this study: FITC and TRITC-conjugated secondary antibodies (Jackson ImmunoResearch) and Alexa Fluor 647-conjugated secondary antibodies (Life Technologies).

CiNs = experiment: Whole-cell patch-clamp recordings of CiNs; assay type: cell-based, mouse; details: CiNs after re-plating; data not shown
Protocol: Primary cultures of neurons were prepared from postnatal day 1 wild-type C57 mice. Mice were decapitated, and their brains were removed in pre-cooled physiological saline. The hippocampus was dissected in pre-cooled HBSS (9.5 g/L Hanks' balanced salts, 4.2 mM NaHCO3, 10 mM HEPES, 12 mM MgSO4, 7 g/L glucose, 0.3 g/L bull serum albumin, and 0.5% penicillin/streptomycin, with the pH adjusted to 7.4 with NaOH). Tissues were digested with 5 ml 0.2% trypsin (Gibco, dissolved in digestion solution) for 2-3 min, and the digestion reaction was stopped with 1 mg/ml trypsin inhibitor (Sigma, dissolved in HBSS). The digestion solution contained (in mM) 4.2 NaHCO3, 25 HEPES, 137 NaCl, 5 KCl, and 7 Na2HPO4, and the pH was adjusted to 7.4 with NaOH. […]
For whole-cell patch-clamp recordings, the ACSF (artificial cerebrospinal fluid) extracellular solution contained (in mM) 141 NaCl, 2.5 KCl, 1.3 MgCl2, 2.4 CaCl2, 1.25 NaH2PO4 10 glucose and 10 HEPES (pH adjusted to 7.4 with NaOH), and the internal pipette solution contained (in mM) 140 potassium gluconate, 1 CaCl2, 10 EGTA, 2 MgCl2, 10 HEPES, and 5 Na2ATP (pH adjusted to 7.3 with KOH). […] Tetrodotoxin (TTX; 10 μM) dissolved in extracellular solution was applied with an ALA-VM4 valve manifold (Scientific Instruments), and washout from the iNs was assessed to determine whether the inward fast inactivating current was a sodium current. […]

[1] = I-BET151 added to FICS cocktail (FICS+1 screening)

COc1cc2c(cc1-c1c(C)noc1C)ncc1[nH]c(=O)n([C@H](C)c3ccccn3)c12 [I-BET151, 7-(3,5-dimethylisoxazol-4-yl)-8-methoxy-1-((R)-1-(pyridin-2-yl)ethyl)-1H-imidazo[4,5-c]quinolin-2(3H)-one]
role in suppression of the endogenous fibroblast-fate-determining program (fibroblasts): core small molecule to suppress the endogenous fibroblast-fate-determining program | TUJ1-positive cells yield (mouse fibroblasts; [1]): 90% | reprogramming rate and neurite outgrowth of the induced neurons (mouse fibroblasts; [1]): dramatically enhanced | toxicity to cells being induced (mouse fibroblasts; enhancing reprogramming with I-BET151): some toxicity

NC(=O)c1ccc(-c2nc(-c3ccc4c(c3)OCO4)c(-c3ccccn3)[nH]2)cc1 [SB431542, 4-[4-(1,3-benzodioxol-5-yl)-5-(2-pyridinyl)-1H-imidazol-2-yl]benzamide]
survival and neurite outgrowth of the induced neurons (mouse fibroblasts; in FICSB cocktail): enhanced | need of the chemical for generating neurons (mouse fibroblasts; withdrawing individual chemical from FICSB cocktail): dispensable for generating neurons

NC(CCCP(=O)(O)O)C(=O)O (stereo not shown) [AP5, 2-amino-5-phosphonovaleric acid]
effect of receptor antagonists on EPSCs of CiNs (CiNs): blocked

N#Cc1cc2c(cc1[N+](=O)[O-])=NC(=O)C(=O)N=2 [CNQX, 6-cyano-7-nitroquinoxaline-2,3-dione]
effect of receptor antagonists on EPSCs of CiNs (CiNs): blocked

C[C@@H](N)[C@H]1CC[C@H](C(=O)Nc2ccncc2)CC1.Cl.Cl [Y2632, (+)-(R)-trans-4-(1-aminoethyl)-N-(4-pyridyl)cyclohexanecarboxamide dihydrochloride]
survival rate and reprogramming (mouse fibroblasts; treatment from Day 0 to about day 4 together with I-BET151-containing cocktail): enhanced the survival rate and reprogramming

O=C(NC1CC1)c1cc(-c2cccs2)on1 [ISX9, N-cyclopropyl-5-(2-thienyl)-3-isoxazolecarboxamide]
role in activation of master neural / neuron-specific genes (fibroblasts; 48 h): necessary for activation of multiple neuron-specific genes; also recorded: essential to induce the master neural genes
